Experiment [1] relates to rat models of hypertension. To be noted: cited from earlier work.
In experiment [2] the test system is neointimal formation. The settings on record: rats, balloon injury model; cited from earlier work.
For experiment [3], the system named is congestive heart failure in Dahl salt-sensitive rats. To be noted: rat, in vivo; cited from earlier work.
The target of experiment [4] is ROCK2 (Homo sapiens (Human), UniProt O75116). Description: ROCK assay (Caliper LABCHIP peptide phosphorylation, 5 μM ATP). To be noted: 1.5 μM peptide substrate. The format is biochemical.
Sequence of ROCK2 (O75116 whole entry, species assumed): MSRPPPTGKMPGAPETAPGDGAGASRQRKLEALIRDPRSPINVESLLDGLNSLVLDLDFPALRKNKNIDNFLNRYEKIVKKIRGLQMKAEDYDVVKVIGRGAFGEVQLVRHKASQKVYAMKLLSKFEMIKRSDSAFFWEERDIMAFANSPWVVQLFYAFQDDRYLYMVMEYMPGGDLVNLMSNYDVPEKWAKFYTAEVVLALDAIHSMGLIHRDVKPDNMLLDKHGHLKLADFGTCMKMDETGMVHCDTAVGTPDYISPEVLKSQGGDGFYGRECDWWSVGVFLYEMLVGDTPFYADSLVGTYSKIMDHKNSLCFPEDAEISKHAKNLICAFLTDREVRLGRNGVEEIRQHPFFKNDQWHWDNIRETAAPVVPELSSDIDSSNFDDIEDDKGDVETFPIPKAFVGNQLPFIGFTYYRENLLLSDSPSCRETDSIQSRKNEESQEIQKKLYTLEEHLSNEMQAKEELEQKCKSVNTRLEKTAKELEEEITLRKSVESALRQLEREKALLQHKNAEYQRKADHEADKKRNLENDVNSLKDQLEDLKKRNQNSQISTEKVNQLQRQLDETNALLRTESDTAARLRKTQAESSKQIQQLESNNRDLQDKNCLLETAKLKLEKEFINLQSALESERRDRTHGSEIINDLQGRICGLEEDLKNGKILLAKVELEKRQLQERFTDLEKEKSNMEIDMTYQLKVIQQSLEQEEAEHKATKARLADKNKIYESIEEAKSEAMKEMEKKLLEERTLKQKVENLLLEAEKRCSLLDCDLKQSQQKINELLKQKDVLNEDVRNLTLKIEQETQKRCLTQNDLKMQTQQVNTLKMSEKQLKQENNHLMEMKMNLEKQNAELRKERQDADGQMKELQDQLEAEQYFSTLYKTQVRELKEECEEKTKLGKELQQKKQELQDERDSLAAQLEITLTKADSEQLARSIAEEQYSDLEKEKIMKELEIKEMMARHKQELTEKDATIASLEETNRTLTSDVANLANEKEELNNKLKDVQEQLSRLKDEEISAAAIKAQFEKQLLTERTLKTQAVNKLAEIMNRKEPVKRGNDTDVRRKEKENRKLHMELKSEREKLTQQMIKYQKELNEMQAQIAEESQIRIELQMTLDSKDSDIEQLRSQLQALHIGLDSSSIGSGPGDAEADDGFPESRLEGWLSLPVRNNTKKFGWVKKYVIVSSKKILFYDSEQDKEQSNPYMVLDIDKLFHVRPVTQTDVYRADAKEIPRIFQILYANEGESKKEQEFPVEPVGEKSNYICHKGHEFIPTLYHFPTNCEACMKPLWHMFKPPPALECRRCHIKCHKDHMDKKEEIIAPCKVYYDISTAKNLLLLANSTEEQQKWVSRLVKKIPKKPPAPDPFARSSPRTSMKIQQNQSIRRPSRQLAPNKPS
Experiment [5] has as its system IL-1 beta-induced coronary stenosis. To be noted: long term treatment; cited from earlier work.
Experiment [6] concerns rat stroke model. To be noted: in vivo; cited from earlier work.

By IC50 is commonly meant the concentration that inhibits the measured activity by half. Lower therefore signals greater potency in that assay.

Turning to `C[C@@H](N)[C@H]1CC[C@H](C(=O)Nc2ccncc2)CC1` [Example Y-27632, Y-27632], in experiment [1] (control rats), the “blood pressure in control rats” value was “only a minor effect on blood pressure”. The blood pressure entry in experiment [1] (spontaneously hypertensive rat, renal hypertensive rat and deoxycortisone acetate salt hypertensive rat models) is recorded as “significantly decrease blood pressure”. In addition, the neointimal formation result in experiment [2] was “inhibited neointimal formation”. Besides, the “ventricular hypertrophy, fibrosis and function” value in experiment [3] is “improve ventricular hypertrophy, fibrosis and function”.

In experiment [4], `O=C(NCCc1cccc(Cl)c1)Nc1ccc2c(c1)OCc1cnccc1-2` [II-10, 1-(3-chlorophenethyl)-3-(5H-chromeno[3,4-c]pyridin-8-yl) urea] came in with an IC50 of 248 nM.

In experiment [4], `Cc1onc(-c2ccccc2)c1NC(=O)Nc1ccc2c(c1)OCc1cnccc1-2` [II-11, 1-(5H-chromeno[3,4-c]pyridin-8-yl)-3-(5-methyl-3-phenylisoxazol-4-yl)urea] gave an IC50 of 2240 nM. Compared with the last compound, the IC50 is about 9-fold higher.

For the compound `O=C(NCCc1ccc2c(c1)OCO2)Nc1ccc2c(c1)OCc1cnccc1-2` [II-12, 1-(2-(benzo[d][1,3]dioxol-5-yl)ethyl)-3-(5H-chromeno[3,4-c]pyridin-8-yl)urea], the IC50 in experiment [4] is 685 nM.

On to `O=S(=O)(c1cccc2cnccc12)N1CCCNCC1` [fasudil], for which, in experiment [5], the coronary constrictive remodeling result was “promote a regression of coronary constrictive remodeling” and the coronary stenosis result is listed as “progressively reduce coronary stenosis”. Moreover, in experiment [6], the “infarct size and neurologic deficit” value was “reduce both the infarct size and neurologic deficit”.

The record behind these values is US9663529B2, “Tricyclic pyrido-carboxamide derivatives as rock inhibitors” (BRISTOL-MYERS SQUIBB COMPANY, priority 2013, dated 2017).
